Common to all, as to assay type: biochemical
The target in one assay is MMP-13 (Homo sapiens, UniProt P45452). The assay can be described thus: MMP-13 activity, fluorometric detection of reaction product. The note with it: 10 μM; human recombinant protein; remaining activity. As for the experimental part: (§1) The activity of MMPs of MMP-1, MMP-2, MMP-9, MMP-12, MMP-13 and TACE was measured using human recombinant proteins. The activity of MMP-8 was measured in human neutrophiles. After incubation with the corresponding substrate, the reaction product of each MMP was detected by fluorometry. The results are expressed as specific control activity percentages ((specific activity measured/specific control activity)×100) obtained in the presence of the compounds tested.

The target of another assay is MMP-14 (Homo sapiens, UniProt P50281). The assay can be described thus: MMP-14 activity. The note with it: 10 μM; remaining activity.
The target in assay [1] is TACE (TNF-alpha converting enzyme) (Homo sapiens, UniProt P78536). The assay can be described thus: TACE activity, fluorometric detection of reaction product. As to conditions: 10 μM; human recombinant protein; remaining activity. As for the experimental part: as §1
The target in a further assay is T1, MMP-2 (Homo sapiens, UniProt P08253).
T1 sequence (P08253 110-660): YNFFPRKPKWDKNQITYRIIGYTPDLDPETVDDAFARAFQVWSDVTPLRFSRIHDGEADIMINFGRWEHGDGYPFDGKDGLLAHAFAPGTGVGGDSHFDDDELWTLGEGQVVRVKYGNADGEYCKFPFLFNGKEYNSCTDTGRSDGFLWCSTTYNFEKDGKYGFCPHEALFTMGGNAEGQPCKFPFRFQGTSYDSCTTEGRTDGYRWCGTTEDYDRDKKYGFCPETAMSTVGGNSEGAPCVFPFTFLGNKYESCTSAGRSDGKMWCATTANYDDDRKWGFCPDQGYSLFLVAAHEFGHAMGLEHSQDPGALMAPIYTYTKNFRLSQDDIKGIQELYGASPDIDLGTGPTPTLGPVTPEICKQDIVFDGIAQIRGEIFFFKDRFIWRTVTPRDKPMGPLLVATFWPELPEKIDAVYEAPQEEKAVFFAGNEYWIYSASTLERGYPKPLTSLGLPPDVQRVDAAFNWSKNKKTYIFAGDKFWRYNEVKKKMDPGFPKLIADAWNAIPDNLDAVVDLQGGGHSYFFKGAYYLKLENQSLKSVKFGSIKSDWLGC
As to the kind of experiment: MMP-2 activity, fluorometric detection of reaction product. As to conditions: 10 μM; human recombinant protein; remaining activity. How it is done:
as §1

The target in a further assay is T2, MMP-8 (Homo sapiens, UniProt P22894).
T2 construct: endogenous in cells; host or cells: human neutrophils
As to the kind of experiment: MMP-8 activity measured in human neutrophiles, fluorometry. As to conditions: 10 μM, remaining activity. As for the experimental part:
as §1

The next assay addresses MMP-12 (Homo sapiens, UniProt P39900). As to the kind of experiment: MMP-12 activity, fluorometric detection of reaction product. As to conditions: 10 μM; human recombinant protein; remaining activity. As for the experimental part:
as §1

The target in the next assay is MMP-9 (Homo sapiens, UniProt P14780). As to the kind of experiment: MMP-9 activity, fluorometric detection of reaction product. The note with it: 10 μM; human recombinant protein; remaining activity. How it is done:
as §1

Another assay has as its target T3, MMP-1 (Homo sapiens, UniProt P03956).
T3 sequence (P03956 100-469): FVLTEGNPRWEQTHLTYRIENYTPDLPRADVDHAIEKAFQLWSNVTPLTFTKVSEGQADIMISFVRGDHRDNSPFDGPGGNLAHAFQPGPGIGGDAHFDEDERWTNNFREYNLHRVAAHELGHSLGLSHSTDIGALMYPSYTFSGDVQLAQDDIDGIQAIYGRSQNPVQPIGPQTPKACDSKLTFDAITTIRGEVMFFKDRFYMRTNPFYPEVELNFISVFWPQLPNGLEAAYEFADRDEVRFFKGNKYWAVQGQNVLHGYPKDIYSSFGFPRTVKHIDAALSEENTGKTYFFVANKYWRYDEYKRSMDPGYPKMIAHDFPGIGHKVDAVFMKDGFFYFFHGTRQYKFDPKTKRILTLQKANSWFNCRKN
The assay can be described thus: MMP-1 activity, fluorometric detection of reaction product. The note with it: 10 μM; human recombinant protein; remaining activity. As for the experimental part: as §1

SMILES strings stand for the structures.

Chain of TACE (TNF-alpha converting enzyme) (P78536 215-824): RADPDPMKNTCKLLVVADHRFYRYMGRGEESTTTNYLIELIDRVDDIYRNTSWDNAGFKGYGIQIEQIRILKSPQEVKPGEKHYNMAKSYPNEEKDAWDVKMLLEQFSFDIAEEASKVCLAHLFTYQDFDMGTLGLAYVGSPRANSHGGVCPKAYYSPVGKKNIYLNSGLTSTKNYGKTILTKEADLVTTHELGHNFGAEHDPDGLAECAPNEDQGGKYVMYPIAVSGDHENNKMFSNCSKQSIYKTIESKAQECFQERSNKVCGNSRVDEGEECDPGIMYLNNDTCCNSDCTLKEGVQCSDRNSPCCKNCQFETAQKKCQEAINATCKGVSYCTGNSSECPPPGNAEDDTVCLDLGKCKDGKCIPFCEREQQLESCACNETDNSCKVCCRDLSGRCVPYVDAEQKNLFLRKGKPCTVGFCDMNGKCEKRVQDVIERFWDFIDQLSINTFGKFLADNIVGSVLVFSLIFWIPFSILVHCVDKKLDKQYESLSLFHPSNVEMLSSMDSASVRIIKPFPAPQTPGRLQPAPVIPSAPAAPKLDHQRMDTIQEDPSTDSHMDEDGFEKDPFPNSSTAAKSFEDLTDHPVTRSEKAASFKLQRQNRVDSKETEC
Chain of MMP-12 (P39900 106-470): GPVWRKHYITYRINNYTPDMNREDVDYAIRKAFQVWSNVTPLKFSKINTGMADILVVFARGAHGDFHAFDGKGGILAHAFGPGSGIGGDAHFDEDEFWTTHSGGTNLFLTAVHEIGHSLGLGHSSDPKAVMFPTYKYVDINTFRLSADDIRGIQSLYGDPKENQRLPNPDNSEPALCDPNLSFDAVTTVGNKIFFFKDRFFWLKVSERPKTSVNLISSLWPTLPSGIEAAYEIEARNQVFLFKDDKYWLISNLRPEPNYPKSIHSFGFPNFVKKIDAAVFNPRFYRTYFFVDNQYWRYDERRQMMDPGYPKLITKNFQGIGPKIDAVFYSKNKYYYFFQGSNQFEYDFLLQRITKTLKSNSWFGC
Chain of MMP-9 (P14780 94-707): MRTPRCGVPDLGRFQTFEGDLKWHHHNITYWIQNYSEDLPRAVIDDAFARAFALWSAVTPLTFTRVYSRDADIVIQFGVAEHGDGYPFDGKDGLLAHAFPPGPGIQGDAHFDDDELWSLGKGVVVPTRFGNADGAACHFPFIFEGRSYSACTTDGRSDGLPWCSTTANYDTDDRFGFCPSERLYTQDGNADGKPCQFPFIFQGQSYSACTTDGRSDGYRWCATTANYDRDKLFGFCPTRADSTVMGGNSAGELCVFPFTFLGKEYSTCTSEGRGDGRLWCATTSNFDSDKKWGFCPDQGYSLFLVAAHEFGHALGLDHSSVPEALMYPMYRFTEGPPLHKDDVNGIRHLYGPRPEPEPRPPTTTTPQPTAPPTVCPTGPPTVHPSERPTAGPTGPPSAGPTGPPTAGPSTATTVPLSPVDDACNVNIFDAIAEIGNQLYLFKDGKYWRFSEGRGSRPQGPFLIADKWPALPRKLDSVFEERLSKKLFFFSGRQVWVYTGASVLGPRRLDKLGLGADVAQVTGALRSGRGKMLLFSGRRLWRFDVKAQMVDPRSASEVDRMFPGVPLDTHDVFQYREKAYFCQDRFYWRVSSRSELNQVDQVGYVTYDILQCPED
T2 sequence (P22894 101-467): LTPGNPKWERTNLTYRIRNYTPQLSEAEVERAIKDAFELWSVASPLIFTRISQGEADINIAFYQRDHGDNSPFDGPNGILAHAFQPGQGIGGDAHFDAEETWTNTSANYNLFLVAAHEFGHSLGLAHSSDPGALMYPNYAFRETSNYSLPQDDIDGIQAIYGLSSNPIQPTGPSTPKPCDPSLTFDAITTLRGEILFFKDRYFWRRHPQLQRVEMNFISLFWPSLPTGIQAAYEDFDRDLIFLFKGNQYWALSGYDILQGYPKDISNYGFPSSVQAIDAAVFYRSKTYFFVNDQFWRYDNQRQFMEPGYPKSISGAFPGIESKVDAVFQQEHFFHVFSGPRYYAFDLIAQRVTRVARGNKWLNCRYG

For `Cc1cccc(-c2cccc(C)n2)n1` [6,6′-dimethyl-2,2′-dipyridyl], the “MMP activity (% of control values ± SD), MMP-13” value at MMP-13 is on record as 96.2 ± 2.6 % of control values. Moreover, at MMP-14, the “MMP activity (% of control values ± SD), MMP-14” value is reported as 84.3 ± 3.0 % of control values. For the same molecule, the “MMP activity (% of control values ± SD), TACE” value in assay [1] is 100.3 ± 0.2 % of control values. Moreover, the “MMP activity (% of control values ± SD), MMP-2” value on MMP-2 is 95.9 ± 7.5 % of control values. In addition, the “MMP activity (% of control values ± SD), MMP-8” value on MMP-8 is 95.0 ± 6.5 % of control values. Further, the “MMP activity (% of control values ± SD), MMP-12” value at MMP-12 is listed as 96.3 ± 1.0 % of control values. Further, the “MMP activity (% of control values ± SD), MMP-9” value on MMP-9 is on record as 101.0 ± 3.3 % of control values. In addition, at MMP-1, the “MMP activity (% of control values ± SD), MMP-1” value is 98.8 ± 0.7 % of control values.

Consider `Cc1ccc(-c2ccc(C)cn2)nc1` [5,5′-dimethyl-2,2′-dipyridyl], for which the “MMP activity (% of control values ± SD), MMP-13” value at MMP-13 is on record as 89.4 ± 1.2 % of control values. The “MMP activity (% of control values ± SD), MMP-14” value on MMP-14 is recorded as 90.2 ± 4.1 % of control values. For the same molecule, in assay [1], the “MMP activity (% of control values ± SD), TACE” value is 100.8 ± 2.1 % of control values. In addition, the “MMP activity (% of control values ± SD), MMP-2” value on MMP-2 is 86.4 ± 2.2 % of control values. Further, the “MMP activity (% of control values ± SD), MMP-8” value at MMP-8 is listed as 88.3 ± 6.7 % of control values. Moreover, on MMP-12, the “MMP activity (% of control values ± SD), MMP-12” value was 93.4 ± 0.4 % of control values. Also, on MMP-9, the “MMP activity (% of control values ± SD), MMP-9” value is listed as 86.0 ± 3.4 % of control values. The “MMP activity (% of control values ± SD), MMP-1” value at MMP-1 is on record as 96.1 ± 0.3 % of control values.

With `Cc1ccnc(-c2cc(C)ccn2)c1` [4,4′-dimethyl-2,2′-dipyridyl], the “MMP activity (% of control values ± SD), MMP-13” value at MMP-13 is listed as 90.0 ± 4.1 % of control values. The “MMP activity (% of control values ± SD), MMP-14” value on MMP-14 is reported as 90.8 ± 4.7 % of control values. Also, the “MMP activity (% of control values ± SD), TACE” value in assay [1] is given as 106.4 ± 1.2 % of control values. Also, the “MMP activity (% of control values ± SD), MMP-2” value at MMP-2 is 100.8 ± 6.0 % of control values. Besides, the “MMP activity (% of control values ± SD), MMP-8” value on MMP-8 was 86.5 ± 7.4 % of control values. Moreover, at MMP-12, the “MMP activity (% of control values ± SD), MMP-12” value is 96.3 ± 1.0 % of control values. At MMP-9, the “MMP activity (% of control values ± SD), MMP-9” value is listed as 88.5 ± 3.4 % of control values. The “MMP activity (% of control values ± SD), MMP-1” value at MMP-1 is on record as 94.3 ± 0.1 % of control values.

(Values after patent US20120322829A1, “USE OF A DIPYRIDYL COMPOUND FOR TREATING ROSACEA” (GALDERMA RESEARCH & DEVELOPMENT, priority 2009, published 2012).)
